The results in this text go back to patent US8217176B2, “Fused heterocyclic derivative and use thereof” (Takeda Pharmaceutical Company Limited, priority 2008, dated 2012).

Molecules are shown by their SMILES. Counter-ions that a name gives are not always drawn.

The assay deals with NIH-3T3/Gli reporter cells. The experiment in a line: Evaluation of compound: Shh-N-induced luciferase activity in NIH-3T3/Gli reporter cells (Smo inhibitory action). The assay is classed as cell-based. Conditions: 48 hr; for inhibition at 1 µM: NIH3T3, 1 μM compound, mouse Shh-N end fragment supernatant, read-out: inhibition rate (%) at 1 μM; for IC50: NIH3T3, mouse Shh-N end fragment supernatant, read-out: IC50 value (compound concentration necessary for achieving 50% of the maximum value of inhibition rate). Here is the method: HEK293 cells were grown in D-MEM medium (Invitrogen) containing 10% fetal bovine serum in a 10 cm dish and pcDNA3.1/mShh-N was introduced into the cells using FuGENE6 (Roche Applied Science). Thereafter, the HEK293 cells were cultured in a carbon dioxide gas incubator at 37° C. for 24 hours, and the medium was exchanged with D-MEM medium (Invitrogen) containing 2% fetal bovine serum. After culturing for 48 hr, a culture supernatant containing recombinant type mouse Shh-N end fragment was obtained by filtration using a filter ([…]).
Using D-MEM (Invitrogen) containing 10% fetal bovine serum, expression plasmid pcDNA3.1 and Gli reporter plasmid (pGL3/δ-cry promoter, 8×Gli binding site) produced by the method of Experimental Example 1 were introduced into NIH-3T3 cells grown in a 10 cm dish by the use of FuGENE6 (Roche Applied Science).
After culture for 24 hr, the cells were recovered, suspended in D-MEM medium containing 10% fetal bovine serum and supplemented with Geneticin (Life Technologies Oriental, Inc.) to a final concentration of 500 μg/ml, diluted to 10^4 cells/ml, plated on a 96 well plate, and cultured in a carbon dioxide gas incubator at 37° C. to give Geneticin resistant transformed cell line.
The obtained transformed cell line was cultured in a 96 well plate, mouse Shh-N end fragment obtained in Experimental Example 3 was added, and NIH-3T3/Gli reporter cell, which is a cell line capable of induction of luciferase expression, was selected.
NIH-3T3/Gli reporter cells cultured in D-MEM (Invitrogen) containing 10% fetal bovine serum were plated in a 96 well white plate at 1×10^4 cells/well, and cultured overnight in a carbon dioxide gas incubator at 37° C. The medium was removed, a compound (50 μl) and culture supernatant of mouse Shh-N end fragment-expressing HEK293 (D-MEM medium containing 2% fetal bovine serum, 50 μl) were added, and the cells were cultured for 48 hr in a carbon dioxide gas incubator at 37° C. Bright-Glo (Promega, 50 μl) was added, and the mixture was stirred, after which luciferase activity was measured by EnVision (PerkinElmer). The inhibition rate was calculated based on the luciferase activity of the control without addition of the compound as 100. The concentration of the compound and the inhibition rate were analyzed by PRISM3.00 (software of GraphPad), based on which the IC50 value (compound concentration necessary for achieving 50% of the maximum value of inhibition rate) of the compound was calculated.

For orientation: inhibition means how much of the control response was suppressed. As for `COc1c(C(=O)NCCN2CCOCC2)n(C)c2c1c(=O)n(CC(=O)c1ccccc1)c1ccccc21` [Example 71, 3-methoxy-1-methyl-N-(2-morpholin-4-ylethyl)-4-oxo-5-(2-oxo-2-phenylethyl)-4,5-dihydro-1H-pyrrolo[3,2-c]quinoline-2-carboxamide], the inhibition at 1 µM stood at 100% and the IC50 was ≤ 1 µM.
Taken in the same sequence, the figures for `COc1c(C(=O)N2CCCCC2CN)sc2c1c(=O)n(CC(=O)c1ccccc1)c1ccccc21` (centres unmarked) [Example 73, 2-{[2-(aminomethyl)piperidin-1-yl]carbonyl}-3-methoxy-5-(2-oxo-2-phenylethyl)thieno[3,2-c]quinolin-4(5H)-one hydrochloride] were 100% and ≤ 1 µM.
The matching figures for `COc1c(C(=O)NCC2CCCCN2)sc2c1c(=O)n(CC(=O)c1ccccc1)c1ccccc21` (centres unmarked) [Example 74, 3-methoxy-4-oxo-5-(2-oxo-2-phenylethyl)-N-(piperidin-2-ylmethyl)-4,5-dihydrothieno[3,2-c]quinoline-2-carboxamide hydrochloride]: 100% and ≤ 1 µM.
Consider `COc1c(C(=O)NC(C)CN(C)C)n(C)c2c1c(=O)n(CC(=O)c1ccccc1)c1ccccc21` (centres unmarked) [Example 92, N-[2-(dimethylamino)-1-methylethyl]-3-methoxy-1-methyl-4-oxo-5-(2-oxo-2-phenylethyl)-4,5-dihydro-1H-pyrrolo[3,2-c]quinoline-2-carboxamide], for which the inhibition at 1 µM was 100% and the IC50 is ≤ 1 µM.
Taken in the same sequence, the figures for `COc1c(C(=O)NCC2CCCN(CCO)C2)n(C)c2c1c(=O)n(CC(=O)c1ccccc1)c1ccccc21` (centres unmarked) [Example 102, N-{[1-(2-hydroxyethyl)piperidin-3-yl]methyl}-3-methoxy-1-methyl-4-oxo-5-(2-oxo-2-phenylethyl)-4,5-dihydro-1H-pyrrolo[3,2-c]quinoline-2-carboxamide] were 80% and ≤ 1 µM.
The matching figures for `COc1c(C(=O)NCC(C)(C)CO)n(C)c2c1c(=O)n(CC(=O)c1ccccc1)c1ccccc21` [Example 109, N-(3-hydroxy-2,2-dimethylpropyl)-3-methoxy-1-methyl-4-oxo-5-(2-oxo-2-phenylethyl)-4,5-dihydro-1H-pyrrolo[3,2-c]quinoline-2-carboxamide]: 100% and ≤ 1 µM.
The matching figures for `COc1c(C(=O)N(C)CCNC(C)C)sc2c1c(=O)n(CC(=O)c1ccccc1)c1ccccc21` [Example 115, 3-methoxy-N-methyl-N-{2-[(1-methylethyl)amino]ethyl}-4-oxo-5-(2-oxo-2-phenylethyl)-4,5-dihydrothieno[3,2-c]quinoline-2-carboxamide hydrochloride]: 100% and ≤ 1 µM.
Regarding `COc1c(C(=O)N[C@H]2CC[C@H](O)CC2)n(C)c2c1c(=O)n(CC(=O)c1ccccc1)c1ccccc21` [Example 118, N-(trans-4-hydroxycyclohexyl)-3-methoxy-1-methyl-4-oxo-5-(2-oxo-2-phenylethyl)-4,5-dihydro-1H-pyrrolo[3,2-c]quinoline-2-carboxamide], the inhibition at 1 µM was determined as 100%.
Still for that read-out and setting: the value for `CCc1cc2c(c(OC)c(C(=O)NC3CCN(C(=O)CO)CC3)n2C)c(=O)n1CC(=O)c1ccccc1` [Example 131, 6-ethyl-N-[1-(hydroxyacetyl)piperidin-4-yl]-3-methoxy-1-methyl-4-oxo-5-(2-oxo-2-phenylethyl)-4,5-dihydro-1H-pyrrolo[3,2-c]pyridine-2-carboxamide] was 100%; that for `CCOc1c(C(=O)NCC(C)(C)O)n(C)c2cc(C)n(CC(=O)c3ccccc3)c(=O)c12` [Example 132, 3-ethoxy-N-(2-hydroxy-2-methylpropyl)-1,6-dimethyl-4-oxo-5-(2-oxo-2-phenylethyl)-4,5-dihydro-1H-pyrrolo[3,2-c]pyridine-2-carboxamide] was 100%; that for `COc1c(C(=O)NC2CCN(c3ccncc3)CC2)n(C)c2cc(C)n(CC(=O)c3ccccc3)c(=O)c12` [Example 135, 3-methoxy-1,6-dimethyl-4-oxo-5-(2-oxo-2-phenylethyl)-N-(1-pyridin-4-ylpiperidin-4-yl)-4,5-dihydro-1H-pyrrolo[3,2-c]pyridine-2-carboxamide] was 100%.
Still for that read-out and setting: the value for `CCOc1c(C(=O)NC2CCN(C(=O)CO)CC2)n(C)c2cc(C)n(CC(=O)c3ccccc3)c(=O)c12` [Example 136, 3-ethoxy-N-[1-(hydroxyacetyl)piperidin-4-yl]-1,6-dimethyl-4-oxo-5-(2-oxo-2-phenylethyl)-4,5-dihydro-1H-pyrrolo[3,2-c]pyridine-2-carboxamide] was 100%.
Still for that read-out and setting: then `CCCOc1c(C(=O)NC2CCN(C(=O)CO)CC2)n(C)c2cc(C)n(CC(=O)c3ccccc3)c(=O)c12` [Example 137, N-[1-(hydroxyacetyl)piperidin-4-yl]-1,6-dimethyl-4-oxo-5-(2-oxo-2-phenylethyl)-3-propoxy-4,5-dihydro-1H-pyrrolo[3,2-c]pyridine-2-carboxamide], with 100%.
Regarding `CCOc1c(C(=O)NC2CCN(CCO)CC2)n(C)c2cc(C)n(CC(=O)c3ccccc3)c(=O)c12` [Example 138, 3-ethoxy-N-[1-(2-hydroxyethyl)piperidin-4-yl]-1,6-dimethyl-4-oxo-5-(2-oxo-2-phenylethyl)-4,5-dihydro-1H-pyrrolo[3,2-c]pyridine-2-carboxamide], the inhibition at 1 µM worked out at 100%.
Same read-out and setting: the value for `CCCc1cc2c(c(OCC)c(C(=O)NC3CCN(C(=O)CO)CC3)n2C)c(=O)n1CC(=O)c1ccccc1` [Example 141, 3-ethoxy-N-[1-(hydroxyacetyl)piperidin-4-yl]-1-methyl-4-oxo-5-(2-oxo-2-phenylethyl)-6-propyl-4,5-dihydro-1H-pyrrolo[3,2-c]pyridine-2-carboxamide] was 100%; that for `CCc1cc2c(c(OCCF)c(C(=O)NC3CCN(C(=O)CO)CC3)n2C)c(=O)n1CC(=O)c1ccccc1` [Example 142, 6-ethyl-3-(2-fluoroethoxy)-N-[1-(hydroxyacetyl)piperidin-4-yl]-1-methyl-4-oxo-5-(2-oxo-2-phenylethyl)-4,5-dihydro-1H-pyrrolo[3,2-c]pyridine-2-carboxamide] was 100%.
Still for that read-out and setting: the value for `CCCOc1c(C(=O)NC2CCN(C(=O)CO)CC2)n(C)c2cc(CC)n(CC(=O)c3ccccc3)c(=O)c12` [Example 510, 6-ethyl-N-[1-(hydroxyacetyl)piperidin-4-yl]-1-methyl-4-oxo-5-(2-oxo-2-phenylethyl)-3-propoxy-4,5-dihydro-1H-pyrrolo[3,2-c]pyridine-2-carboxamide] was 100%; that for `COc1c(C(=O)NC2CCN(C(=O)CCO)CC2)n(C)c2c1c(=O)n(CC(=O)c1ccccc1)c1ccccc21` [Example 517, N-[1-(3-hydroxypropanoyl)piperidin-4-yl]-3-methoxy-1-methyl-4-oxo-5-(2-oxo-2-phenylethyl)-4,5-dihydro-1H-pyrrolo[3,2-c]quinoline-2-carboxamide] was 100%.
`CCc1cc2c(c(OC(C)C)c(C(=O)NC3CCN(C(=O)CO)CC3)n2C)c(=O)n1CC(=O)c1ccccc1` [Example 522, 6-ethyl-N-[1-(hydroxyacetyl)piperidin-4-yl]-1-methyl-3-(1-methylethoxy)-4-oxo-5-(2-oxo-2-phenylethyl)-4,5-dihydro-1H-pyrrolo[3,2-c]pyridine-2-carboxamide]: the inhibition at 1 µM came to 100%.
For the molecule `COc1c(C(=O)NC2CCN(C(=O)CO)CC2)sc2c1c(=O)n(CC(=O)c1ccccc1)c1ccc(F)cc21` [Example 562, 8-fluoro-N-[1-(hydroxyacetyl)piperidin-4-yl]-3-methoxy-4-oxo-5-(2-oxo-2-phenylethyl)-4,5-dihydrothieno[3,2-c]quinoline-2-carboxamide], the inhibition at 1 µM is 100%.
With `COc1c(C(=O)NC2CCN(c3ccncc3)CC2)n(C)c2c1c(=O)n(CC(=O)c1ccccc1)c1ccccc21` [Example 563, 3-methoxy-1-methyl-4-oxo-5-(2-oxo-2-phenylethyl)-N-(1-pyridin-4-ylpiperidin-4-yl)-4,5-dihydro-1H-pyrrolo[3,2-c]quinoline-2-carboxamide], the inhibition at 1 µM was 100%.
The same measure, in the same setting: then `COc1c(C(=O)NC2CCN(c3ccncn3)CC2)n(C)c2c1c(=O)n(CC(=O)c1ccccc1)c1ccccc21` [Example 583, 3-methoxy-1-methyl-4-oxo-5-(2-oxo-2-phenylethyl)-N-(1-pyrimidin-4-ylpiperidin-4-yl)-4,5-dihydro-1H-pyrrolo[3,2-c]quinoline-2-carboxamide], with 100%.
